From US20030027765A1, “Therapeutic peptides having a motif that binds specifically to non-acetylated H3 and H4 histones for cancer therapy” (priority 2000, published 2003)
Entries after “also recorded” stand apart in the source; their conditions may differ. Values belong to the compound of their own block, whether it stands above or below them.

Experiments:
histone H3 [1] = test: histone H3 acetylation in Na-butyrate treated MCF-7 cells (immunoblot); format: cell-based, human
Text: (§1) Deacetylated histones are substrates for histone acetylation and for chromatin remodelling which has been associated with eukaryotic transcriptional regulatory mechanisms (K Struhl, Genes Dev., vol. 12, 599,1998; M. Grunstein, Nature, vol. 389,349, 1997).

histone H4 [2] = molecular target: T1, histone H4 (Mus musculus, UniProt P62806); test: histone H4 acetylation in Na-butyrate treated C3H cells (immunoblot); format: cell-based, murine; details: absence of lunasin
T1 construct: endogenous in cells; host or cells: C3H 10T1/2 mouse embryo fibroblasts
Text: as §1

histone H4 [3] = molecular target: T2, histone H4 (Homo sapiens, UniProt P62805); test: histone H4 acetylation in Na-butyrate treated MCF-7 cells (immunoblot); format: cell-based; details: absence of lunasin
T2 construct: endogenous in cells; host or cells: MCF-7
Text: as §1

histone H3 [4] = test: histone H3 acetylation in Na-butyrate treated C3H cells (immunoblot); format: cell-based, murine
Text: as §1

[5] = molecular target: T3, deacetylated H4 N-terminal tail (Homo sapiens, UniProt P62805); test: in vitro immuno-binding assay, deacetylated H4; details: for binding to deacetylated H4 N-terminus: FIG. 9
T3 construct: using acetylated and deacetylated forms of the H4 N-terminal tail

C3H cells = test: lunasin treatment followed by E1A oncogene transfection (apoptosis); format: cell-based, murine; details: 20 h after transfection
Text: As a negative control, E1A with deleted conserved region 1 (E1AΔCR1) that abolishes the RB binding domain was likewise used in the transfection experiments (D. Trouche, T. Kouzidares, Proc. Natl. Acad. Sci., USA, vol. 93, 1439 (1996)).

[6] = test system: murine embryo fibroblast cells; test: exogenous application of lunasin to growth media, immunostaining; format: cell-based
Text: (§2) Lunasin contains the cell adhesion motif RGD (arg-gly-asp). […] However, at this stage of mitosis, kinetochore assembly and spindle fiber attachment to centromeres had already transpired.

[7] = test system: mice embryo fibroblast cells (C3H 10T½); test: cell adhesion assay with synthetic lunasin peptides; format: cell-based; details: C3H 10T½ cells, FIG. 2
Text: as §2

C3H 10 T½ cells = test: cell transformation assay (carcinogen-induced foci formation); format: cell-based, murine; details: FIG. 6, FIG. 12
[8] = molecular target: histone H3 in MCF-7 cells (human)
[9] = molecular target: deacetylated H4 N-terminal tail peptide; test: in vitro immuno-binding assay, increasing dose of deacetylated H4 peptide (FIG. 10)
tetra-acetylated H4 = molecular target: T4, tetra-acetylated H4 (Homo sapiens, UniProt P62805); test: in vitro immuno-binding assay, tetra-acetylated H4; details: FIG. 9
T4 construct: using acetylated and deacetylated forms of the H4 N-terminal tail

[10] = treated with lunasin for 24 h, then E1Awt

Compound: CCCC(=O)[O-].[Na+] [Na-butyrate, reference compound]
- increase of H3 acetylation (histone H3 [1]; MCF-7 cells, Na-butyrate treatment): around 400 fold
- increase of histone H4 acetylation (histone H4 [2]): 200 fold
- increase of histone H4 acetylation (histone H4 [3]): 200 fold
- increase of H3 acetylation (histone H3 [4]; C3H cells, Na-butyrate treatment): 100 fold

Compound: Ser-Lys-Trp-Gln-His-Gln-Gln-Asp-Ser-Cys-Arg-Lys-Gln-Leu-Gln-Gly-Val-Asn-Leu-Thr-Pro-Cys-Glu-Lys-His-Ile-Met-Glu-Lys-Ile-Gln-Gly-Arg-Gly-Asp -Asp-Asp-Asp-Asp-Asp-Asp-Asp-Asp [Lunasin]
- cell state after E1A-ΔCR1 transfection (C3H cells; presence of lunasin): normally dividing cells
- Annexin V staining of non-adherent cells (apoptosis) (C3H cells; [10]): positive fluorescent staining for Annexin V-HITC
- cell state after E1Awt transfection (C3H cells; [10]): preponderance of non-adherent cells
- reduction of H3 acetylation (histone H3 [1]; MCF-7 cells, lunasin added prior to Na-butyrate treatment): 4 fold
- acetylated H3 on immunoblots of acid-extracted proteins (histone H3 [1]; Na-butyrate treated MCF-7 cells pretreated with 1 μM lunasin, FIG. 13): significant reduction
- internalization into cells ([6]; applied exogenously to the growth media, FIG. 3): became internalized
- chromosomal binding site of internalized peptide ([6]; applied exogenously, metaphase): preferentially binding to the telomeres of chromosomes during metaphase
- effect on cell division and proliferation ([6]; exogenous application): did not affect cell division and proliferation
- effect on kinetochore assembly ([6]; internalized lunasin): did not affect kinetochore assembly
- cell adhesion to C3H cells [7]: adhered to C3H cells in a dose-dependent manner
- Na-butyrate-induced increase in H3 acetylation upon addition of lunasin (histone H3 [4]; C3H cells): no observed increase
- acetylated H3 on immunoblots of acid-extracted proteins (histone H3 [4]; Na-butyrate treated C3H cells pretreated with 1 μM lunasin, FIG. 13): significant reduction

Compound: trLunasin: truncated lunasin that contains only the reactive carboxyl end of the peptide (EKHIMEKIQGRGDDDDDDDDD; Glycine max; trLunasin)
- anti-transformation property / efficacy in preventing foci transformation (C3H 10 T½ cells): reduced efficacy
- binding affinity to deacetylated H4 relative to trLunasin-del [5]: not significantly different
- binding to deacetylated H4 N-terminus [5]: significant reduction in deacetylated H4 binding; also recorded: lower binding affinity

Compound: trLunasin-del: 10 amino acid peptide fragment spanning a helical domain upstream of the poly-aspartyl carboxyl end of lunasin (EKHIMEKIQG; Glycine max; trLunasin-del)
- binding affinity to deacetylated H4 relative to NLS-trLunasin ([5]; FIG. 10): significantly higher affinity

More lines, main results first:

- binding to deacetylated H4 N-terminus [5]: loss of binding to deacetylated H4
Compound: NLS-trLunasin: truncated lunasin peptide with the helix substituted by a nuclear localization sequence (NLS) (LEEKQKKKMEKEQGRGDDDDDDDDD; Glycine max; NLS-trLunasin)

- acetylated H3 on immunoblots of acid-extracted proteins, Na-butyrate treated MCF-7 cells [8]: 4 fold
- binding against trLunasin-del [9]: 3 x
Compound: Lunasin peptide

- binding to tetra-acetylated H4 (tetra-acetylated H4): not to the tetra-acetylated H4
- binding to deacetylated H4 N-terminus [5]: high affinity
Compound: Lunasin-GRG: lunasin with deleted RGD motif (SKWQHQQDSCRKQLQGVNLTPCEKHIMEKIQGDDDDDDDD)
- cell adhesion to C3H cells [7]: prevented cell adhesion
